Results on ten compounds are retold here after patent US7196110B2, “N-substituted tricyclic 3-aminopyrazoles as inhibitors for the treatment of cell proliferative disorders” (Janssen Phamaceutica N.V., priority 2002, dated 2007).

The subject of experiment [1] is human umbilical vein endothelial cells (HUVEC). Kind of experiment: Anti-cell proliferation in normal cells in the absence of PDGF stimulation (BrdU incorporation). It is filed as cell-based. The following applies: read-out: IC50 on cell proliferation, HUVEC (LSGS). As for the experimental part:
The effect of compounds of the invention on cell proliferation in normal human primary cell, in particular, human umbilical vein endothelial cells (HUVEC), in the absence of PDGF stimulation was tested based on incorporation of BrdU into DNA of cells.
The following materials were purchased from their respective sources: HUVEC cells from Cascade Biologics, Cat No: C-015-10C; Medium 200 from Cascade Biologics, Cat No: M-200-500; Low serum growth supplements (LSGS) from Cascade Biologics, Cat No: S-003-10; F12-K medium from Gibco/BRL, Cat No: 21127-022; BrdU kit from Roche, Cat No: 1 647 229; and Trypsin/EDTA solution from Cascade Biologics, Cat No: R-001-100.
For propigation, HUVEC cells were grown in M-200 medium supplemented with LSGS. For studies, cells were detached with Trypsin/EDTA solution and washed three times with 10 mL of F12K (LS, low serum) medium and then centrifuged at 400×G for 5 minutes. F-12K (LS) medium is F-12K medium containing 0.2% heat-treated fetal bovine serum.
Cell concentration was adjusted to about 5×10^4 cells/mL in F-12K (LS) medium, and 200 μl (approx. 1×10^4 cells) were added to each well of a 96-well plate. Cells were then incubated for 16 to 20 hours at 37° C. under 95% air/5% CO2 to allow the cells to attach and become quiescent.
Cell proliferation was stimulated by adding 50 μL of a 1:10 dilution of LSGS in F12K (LS). Maximum-stimulated control wells were prepared by adding 50 μl of a 1:10 dilution of LSGS. Zero control wells contained 50 SL of F-12K (LS) medium only. Test compounds in 100% DMSO were added at a volume of 2.5 μl to achieve the desired final drug concentration. Replicates of eight wells per condition were tested. Cells were incubated at 37° C. overnight. On the next day 25 μL of BrdU (1:100 dilution of stock in F-12K (LS) medium) was added to each well.
Cells were incubated for an additional 20–24 hours. The medium was removed and the cells were fixed by adding 200 μL of FixDent solution (included in the BrdU kit) to each well and then incubated at room temperature for an additional 30 minutes. FixDent was removed by flicking and blotting the plates, and 100 μL of anti-BrdU-POD (included in the BrdU kit) diluted at a 1:100 dilution in antibody dilution solution (included in the BrdU kit) was added to each well. The diluted anti-BrdU-POD solution was prepared shortly before use. The plates were incubated at room temperature for 90 minutes.
The unbound antibody was removed by washing three times with Wash Solution (200 uL per wash). Wash Solution was prepared by making a 1:10 dilution of Wash Buffer Stock (included in the BrdU kit) with distilled water. Substrate solution (included in the BrdU kit) (100 uL) was added to each well and incubated for an additional 30–40 minutes. Plates were then read at 405 nm on a 96-well plate reader.
In order to test the potency of inhibition of the present compound, IC50 of an individual compound on the inhibition of PDGF-BB independent HUVEC proliferation was measured using the above procedure. As used herein, said IC50 refers to the concentration of the test compound at which the amount of HUVEC proliferation is reduced by one-half as compared to the maximum growth control wells without the compound.

In another experiment the test system is H460 (lung). The experiment can be described thus: Anti-cell proliferation in tumor cells (14C-thymidine incorporation), H460. Type of experiment: cell-based. Here is the method:
The effect of compounds of the invention on cell proliferation in various tumor cells was tested based on incorporation of ^14C-thymidine into DNA of cells.
Similar to those described above in 3a, except that different cells, cell growth medium, and growth supplements were used. Human tumor cell lines derived from various human tissue origins (LoVo from colon, H460 from lung, T47D from breast, PC3 from prostate, A375 from melanoma, AsPC1 from pancreas) were obtained from the American Type Culture Collection (ATCC) and cultured under specified conditions required for each cell type, as provided by ATCC. Complete medium was obtained from Cellgro: Iscove's medium with 10% Fetal Bovine Serium (FBS) (Mediatech, Inc., Herndon, Va. 20171, Cat. No. 10-016-CV).
Tumor cells were seeded at approx. 3000–8000 cells per well in a volume of 100 μl of complete medium. Cells were grown for 24 hours in complete medium, and 1 μl of test compound was serially diluted in 100% DMSO and added to each well. For maximum growth control wells, only 1 μl of 100% DMSO was added. After 24 hours incubation, 20 μl of ^14C-thymidine master mix was added to each well and the ^14C-thymidine master mix was pepared according to the following regimen:
Cells were incubated for an additional 24 hours at 37° C. in medium containing test compound and ^14C-thymidine. Then, the reaction mixture was discarded and the plate was washed 2 times each with 200 μl PBS. Subsequently, each well on the plate was filled with 200 μl of PBS. The top of the plate was sealed with transparent plate sealer and white plate backing sealers were applied to the bottom of plates. The retained ^14C inside each well was measured using a Packard TopCount.
In order to test the potency of inhibition of the present compound, IC50 of an individual compound on the inhibition of tumor cell line proliferation was measured using the above procedure. As used herein, said IC50 refers to the concentration of the test compound at which the amount of tumor cell proliferation is reduced by one-half as compared to the maximum growth control wells without the compound.

The mark [2] stands for this setting: Homo sapiens, NCI-H460; read-out: IC50 on cell proliferation, H460.

Structures are written as SMILES. Read-outs that look alike come from different tables or passages of the source. Some results are limits rather than exact numbers.

For the compound `COC(=O)c1cccc(Nc2[nH]nc3c2Cc2cc(OC)c(OC)cc2-3)c1` [Compound 11, 3-(6,7-Dimethoxy-2,4-dihydro-indeno[1,2-c]pyrazol-3-ylamino)-benzoic acid methyl ester], the IC50 in experiment [1] (LSGS, PDGF-BB independent) came to 2 nM; in the experiment on H460 (lung) (setting [2]), 33 nM.

On to `COc1cc2c(cc1OC)-c1n[nH]c(Nc3ccccc3F)c1C2` [Compound 12, (6,7-Dimethoxy-2,4-dihydro-indeno[1,2-c]pyrazol-3-yl)-(2-fluoro-phenyl)-amine], for which the IC50 in experiment [1] (LSGS, PDGF-BB independent) turned out to be 31 nM; in the experiment with H460 (lung) (setting [2]), 3 nM.

For the compound `COc1cc2c(cc1OC)-c1n[nH]c(Nc3cccc(F)c3)c1C2` [Compound 14, (3-Fluoro-phenyl)-(6,7-dimethoxy-2,4-dihydro-indeno[1,2-c]pyrazol-3-yl)-amine], the IC50 in experiment [1] stood at 4870 nM; in the experiment with H460 (lung) (Homo sapiens, NCI-H460, read-out: IC50 on cell proliferation, H460), 10 nM.

For the compound `Cc1ccc2c(c1)-c1n[nH]c(Nc3ccccc3)c1C2` [Compound 22, (7-Methyl-2,4-dihydro-indeno[1,2-c]pyrazol-3-yl)-phenyl-amine], the IC50 was 2150 nM in experiment [1] (LSGS, PDGF-BB independent) and 9270 nM in the experiment on H460 (lung) (setting [2]).

For the compound `COc1cc2c(cc1OC)-c1n[nH]c(Nc3cccnc3)c1C2` [Compound 30, (6,7-Dimethoxy-2,4-dihydro-indeno[1,2-c]pyrazol-3-yl)-pyridin-3-yl-amine], the IC50 was greater than 1000 nM in experiment [1] (LSGS, PDGF-BB independent) and 290 nM in the experiment with H460 (lung) (setting [2]).

Take `COc1cc2c(cc1OC)-c1n[nH]c(NCc3ccccc3)c1C2` [Compound 63, Benzyl-(6,7-dimethoxy-2,4-dihydro-indeno[1,2-c]pyrazol-3-yl)-amine]: the IC50 in experiment [1] (LSGS, PDGF-BB independent) was 2460 nM; with H460 (lung) (setting [2]) it was 3670 nM.

In the case of `COc1cccc(Nc2[nH]nc3c2Cc2cc4c(cc2-3)OCO4)c1` [Compound 97, (2,9-Dihydro-5,7-dioxa-2,3-diaza-cyclopenta[a]-s-indacen-1-yl)-(3-methoxy-phenyl)-amine], the IC50 in experiment [1] (LSGS, PDGF-BB independent) was found to be 1910 nM; with H460 (lung) (setting [2]), 424 nM.

In the case of `CN1CCN(c2ccc3c(c2)Cc2c-3n[nH]c2Nc2cccc(Br)c2)CC1` [Compound 122, (3-Bromo-phenyl)-[6-(4-methyl-piperazin-1-yl)-2,4-dihydro-indeno[1,2-c]pyrazol-3-yl]-amine], the IC50 in experiment [1] (LSGS, PDGF-BB independent) came out at 223 nM; in the experiment with H460 (lung) (setting [2]) it was 14300 nM.

With `COC(=O)c1cccc(Nc2[nH]nc3c2Cc2cc(OCCCN4CCCC4)c(OC)cc2-3)c1` [Compound 157, 3-[7-Methoxy-6-(3-pyrrolidin-1-yl-propoxy)-2,4-dihydro-indeno[1,2-c]pyrazol-3-ylamino]-benzoic acid methyl ester], the IC50 in experiment [1] (LSGS, PDGF-BB independent) worked out at 218 nM; in the experiment on H460 (lung) (setting [2]), 3590 nM.

On to `COc1cc2c(cc1OC)-c1n[nH]c(NCc3cc(Cl)ccc3Cl)c1C2` [Compound 330, (2,5-Dichloro-benzyl)-(6,7-dimethoxy-2,4-dihydro-indeno[1,2-c]pyrazol-3-yl)-amine], for which the IC50 in experiment [1] (LSGS, PDGF-BB independent) amounted to 49 nM; in the experiment on H460 (lung) (setting [2]) it was 1200 nM.
